ChEMBL document CHEMBL1201862, “PubChem BioAssay data set” (2004)
The source made the active and inactive calls.

Columns and labels:
[1] = Luminescence Cell-Based Dose Response to Identify Activators of Luciferase Translation or Activity in H4-C Neuroglioblastoma Cells. [Related pubchem assays: 1829 (Project Summary), 1814 (Primary HTS)]; type: functional
[2] = Luminescence Cell-Based Dose Response to Identify Activators of 5'UTR Stem-Loop Driven Prion Protein mRNA Translation in H4-C Neuroglioblastoma Cells. [Related pubchem assays: 1829 (Project Summary), 1814 (Primary HTS)]; type: functional
H4 = assay: Luminescence Cell-Based Dose Response HTS to Identify Activators of 5'UTR Stem-Loop Driven Prion Protein mRNA Translation in H4 Neuroglioblastoma Cells. [Related pubchem assays: 1829 (Project Summary), 1814 (Primary HTS)]; type: functional; details: Homo sapiens
[3] = Luminescence Cell-Based Dose Confirmation to Identify Activators of 5'UTR Stem-Loop Driven Alpha-Synuclein mRNA Translation in H4 Neuroglioblastoma Cells. [Related pubchem assays: 1829 (Project Summary), 1814 (Primary HTS)]; type: functional
[4] = Luminescence Cell-Based Dose Response HTS to Identify Activators of Luciferase Translation or Activity in H4 […] Cells. [Related pubchem assays: 1829 (Project Summary), 1814 (Primary HTS)]; type: functional
Galanin receptor type 3 = molecular target: T1, Galanin receptor type 3 (Homo sapiens, UniProt O60755); assay: Fluorescence-based cell-based primary high throughput dose response assay to identify antagonists of the Galanin Receptor 3 (GalR3).; type: functional
T1 sequence (O60755 whole entry): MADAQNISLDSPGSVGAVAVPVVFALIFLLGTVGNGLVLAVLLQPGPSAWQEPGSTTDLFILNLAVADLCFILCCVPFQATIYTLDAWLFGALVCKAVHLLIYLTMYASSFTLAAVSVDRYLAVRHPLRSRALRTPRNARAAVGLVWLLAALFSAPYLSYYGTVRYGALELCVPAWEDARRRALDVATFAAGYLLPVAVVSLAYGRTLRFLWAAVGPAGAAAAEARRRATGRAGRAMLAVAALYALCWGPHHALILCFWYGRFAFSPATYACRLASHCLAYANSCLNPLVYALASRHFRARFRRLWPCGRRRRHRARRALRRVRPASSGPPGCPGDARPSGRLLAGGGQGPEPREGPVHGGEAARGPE

cells [5] = type: functional, cell-based; details: HEK-CNG
cells [6] = assay: cells
[7] = molecular target: T2, Oxysterols receptor LXR-beta (Homo sapiens, UniProt P55055); type: functional, cell-based;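 further: Cell-based luminescence dose-response assay of agonist activity at LXR, run as a confirmatory counterscreen to a daf-12 agonist screen; HEK293 cells with Gal4-LXR fusion and GAL4-driven luciferase reporter; agonist potency from rising luciferase signal of a Gal4-LXR reporter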
T2 sequence (P55055 whole entry): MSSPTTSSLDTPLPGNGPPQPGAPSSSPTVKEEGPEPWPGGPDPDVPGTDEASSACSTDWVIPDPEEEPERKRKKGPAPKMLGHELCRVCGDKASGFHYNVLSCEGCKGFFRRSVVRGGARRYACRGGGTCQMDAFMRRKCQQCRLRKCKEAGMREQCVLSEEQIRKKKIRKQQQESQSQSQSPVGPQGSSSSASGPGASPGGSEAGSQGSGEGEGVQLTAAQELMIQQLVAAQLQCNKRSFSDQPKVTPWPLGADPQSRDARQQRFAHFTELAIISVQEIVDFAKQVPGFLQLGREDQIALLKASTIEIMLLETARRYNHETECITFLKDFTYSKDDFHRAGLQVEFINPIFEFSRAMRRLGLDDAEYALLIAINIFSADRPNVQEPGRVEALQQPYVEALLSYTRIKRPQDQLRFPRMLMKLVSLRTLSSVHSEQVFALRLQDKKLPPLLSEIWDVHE

[8] = molecular target: T3, Histone-lysine N-methyltransferase NSD2 (Homo sapiens, UniProt O96028); type: biochemical
T3 sequence (O96028 whole entry): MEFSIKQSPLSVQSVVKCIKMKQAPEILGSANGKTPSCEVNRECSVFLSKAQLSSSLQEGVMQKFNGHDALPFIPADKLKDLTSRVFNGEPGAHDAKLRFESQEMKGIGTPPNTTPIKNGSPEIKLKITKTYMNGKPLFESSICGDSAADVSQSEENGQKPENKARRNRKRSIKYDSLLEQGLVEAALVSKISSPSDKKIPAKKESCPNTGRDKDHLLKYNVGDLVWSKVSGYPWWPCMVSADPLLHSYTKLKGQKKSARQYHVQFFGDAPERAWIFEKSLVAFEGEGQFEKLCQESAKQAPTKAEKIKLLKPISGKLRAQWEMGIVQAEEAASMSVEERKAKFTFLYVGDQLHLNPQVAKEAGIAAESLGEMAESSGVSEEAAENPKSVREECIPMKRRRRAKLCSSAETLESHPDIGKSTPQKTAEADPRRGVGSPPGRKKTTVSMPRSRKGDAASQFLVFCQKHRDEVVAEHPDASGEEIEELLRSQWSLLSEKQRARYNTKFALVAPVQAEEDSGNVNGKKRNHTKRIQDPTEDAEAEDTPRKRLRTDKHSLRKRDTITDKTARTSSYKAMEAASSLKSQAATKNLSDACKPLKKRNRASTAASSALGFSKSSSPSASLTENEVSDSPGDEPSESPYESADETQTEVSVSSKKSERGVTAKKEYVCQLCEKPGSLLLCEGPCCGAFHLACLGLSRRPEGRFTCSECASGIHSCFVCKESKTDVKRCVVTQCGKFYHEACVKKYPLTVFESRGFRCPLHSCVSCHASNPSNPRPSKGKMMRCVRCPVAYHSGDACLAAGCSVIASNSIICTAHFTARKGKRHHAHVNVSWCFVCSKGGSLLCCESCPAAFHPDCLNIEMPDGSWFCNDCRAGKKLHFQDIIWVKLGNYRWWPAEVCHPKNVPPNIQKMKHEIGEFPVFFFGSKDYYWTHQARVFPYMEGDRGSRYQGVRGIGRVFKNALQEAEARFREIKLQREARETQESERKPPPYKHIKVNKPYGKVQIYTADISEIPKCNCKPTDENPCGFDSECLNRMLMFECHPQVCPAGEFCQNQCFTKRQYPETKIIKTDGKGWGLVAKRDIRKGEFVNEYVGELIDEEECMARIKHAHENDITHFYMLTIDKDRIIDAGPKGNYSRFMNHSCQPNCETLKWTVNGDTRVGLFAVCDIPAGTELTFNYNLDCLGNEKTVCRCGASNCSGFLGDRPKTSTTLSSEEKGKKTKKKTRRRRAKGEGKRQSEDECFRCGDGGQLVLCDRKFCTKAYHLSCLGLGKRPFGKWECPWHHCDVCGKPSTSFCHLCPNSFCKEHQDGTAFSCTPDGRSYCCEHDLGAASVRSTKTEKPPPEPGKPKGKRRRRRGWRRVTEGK

[9] = molecular target: T4, Calpain-2 catalytic subunit (Sus scrofa, UniProt P43367); assay: pig calpain II inhibitor potency, dose response, biochemical, fluorogenic peptide substrate (AID 1420); type: functional
T4 sequence (P43367 whole entry): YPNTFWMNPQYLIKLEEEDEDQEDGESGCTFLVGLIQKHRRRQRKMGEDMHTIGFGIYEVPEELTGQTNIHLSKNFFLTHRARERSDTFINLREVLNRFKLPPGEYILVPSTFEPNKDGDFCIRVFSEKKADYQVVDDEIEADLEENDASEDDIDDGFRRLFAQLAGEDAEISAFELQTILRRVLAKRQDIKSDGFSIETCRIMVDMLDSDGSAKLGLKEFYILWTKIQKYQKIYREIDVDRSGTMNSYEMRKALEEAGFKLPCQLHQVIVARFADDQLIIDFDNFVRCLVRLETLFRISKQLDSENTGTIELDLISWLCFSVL

[10] = molecular target: T5, Long-chain-fatty-acid--AMP ligase FadD28 (Mycobacterium tuberculosis, UniProt P9WQ59); assay: Fluorescence polarization aasay to screen for inhibitors that compete for the binding of FadD28 to a bisubstrate Measured in Biochemical System Using Plate Reader - 2147-01_Inhibitor_Dose_CherryPick_Activity.; type: functional, Mycobacterium tuberculosis H37Rv
T5 sequence (P9WQ59 whole entry): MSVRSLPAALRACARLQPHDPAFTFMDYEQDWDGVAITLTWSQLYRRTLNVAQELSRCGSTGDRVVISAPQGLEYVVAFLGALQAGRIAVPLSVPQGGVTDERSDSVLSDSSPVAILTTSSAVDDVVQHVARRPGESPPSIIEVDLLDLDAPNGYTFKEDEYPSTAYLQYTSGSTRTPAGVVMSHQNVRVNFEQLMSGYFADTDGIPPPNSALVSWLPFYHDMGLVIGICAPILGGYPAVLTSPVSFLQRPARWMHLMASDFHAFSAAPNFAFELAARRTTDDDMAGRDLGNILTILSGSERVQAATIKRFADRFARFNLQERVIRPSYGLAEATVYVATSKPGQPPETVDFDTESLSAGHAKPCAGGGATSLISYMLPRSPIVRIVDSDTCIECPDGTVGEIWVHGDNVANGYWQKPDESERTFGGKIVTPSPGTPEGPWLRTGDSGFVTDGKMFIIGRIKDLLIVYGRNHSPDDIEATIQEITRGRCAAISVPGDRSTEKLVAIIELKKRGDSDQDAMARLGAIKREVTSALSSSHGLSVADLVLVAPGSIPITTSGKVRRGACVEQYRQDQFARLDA

Fatty acid synthase [11] = molecular target: T6, Fatty acid synthase (Homo sapiens, UniProt P49327); assay: FAS thioesterase domain inhibitors, dose response, biochemical, endpoint fluorescence intensity, uHTS hits (AID 624327); type: functional;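 further: fluorescence from hydrolysis of an O-methyl fluorescein acyl ester substrate by the enzyme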
Fatty acid synthase [12] = molecular target: T6, Fatty acid synthase; assay: FAS thioesterase domain inhibitors, dose response, biochemical, kinetic fluorescence intensity (AID 624326); type: functional;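 further: rate of fluorescence rise from hydrolysis of a fluorogenic O-methyl fluorescein ester substrate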
[13] = molecular target: T7, Heat shock factor protein 1 (Mus musculus, UniProt P38532); assay: HSF1 potentiators in luciferase reporter cells, confirmation, cell-based, NIH3T3, luminescence, dose retest (AID 435004); type: functional;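 further: stress induced by proteasome inhibitor MG132 added 30 min after compound; luciferase reporter driven by HSF1 response element in NIH3T3 cells; actives raise luminescence as potentiators of the MG132 stress response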
T7 sequence (P38532 whole entry): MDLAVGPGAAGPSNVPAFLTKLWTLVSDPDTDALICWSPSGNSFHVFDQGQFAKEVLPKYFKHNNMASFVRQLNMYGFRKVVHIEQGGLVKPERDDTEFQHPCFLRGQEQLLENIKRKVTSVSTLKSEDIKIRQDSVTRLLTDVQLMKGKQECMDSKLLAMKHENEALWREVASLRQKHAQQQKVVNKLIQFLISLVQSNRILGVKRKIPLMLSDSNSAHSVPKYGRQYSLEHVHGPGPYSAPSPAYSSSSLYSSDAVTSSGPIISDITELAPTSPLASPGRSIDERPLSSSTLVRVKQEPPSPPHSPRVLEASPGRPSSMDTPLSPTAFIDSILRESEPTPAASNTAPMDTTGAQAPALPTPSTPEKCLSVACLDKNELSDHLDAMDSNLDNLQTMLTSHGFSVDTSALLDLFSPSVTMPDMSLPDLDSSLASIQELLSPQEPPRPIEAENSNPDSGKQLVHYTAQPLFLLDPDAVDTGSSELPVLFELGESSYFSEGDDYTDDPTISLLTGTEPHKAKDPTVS

Paired box protein Pax-8 = Paired box protein Pax-8 (Homo sapiens, UniProt Q06710); assay: inhibitors of PAX8-driven TPO luciferase reporter, dose response, RMG-I cells, cherry-pick (AID 687027); type: functional, cell-based;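 further: luciferase reporter driven by Pax8 target thyroperoxidase promoter measured by SteadyGlo luminescence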
[14] = molecular target: T8, DNA repair protein RAD52 homolog (Homo sapiens, UniProt P43351); type: functional, biochemical
T8 sequence (P43351 whole entry): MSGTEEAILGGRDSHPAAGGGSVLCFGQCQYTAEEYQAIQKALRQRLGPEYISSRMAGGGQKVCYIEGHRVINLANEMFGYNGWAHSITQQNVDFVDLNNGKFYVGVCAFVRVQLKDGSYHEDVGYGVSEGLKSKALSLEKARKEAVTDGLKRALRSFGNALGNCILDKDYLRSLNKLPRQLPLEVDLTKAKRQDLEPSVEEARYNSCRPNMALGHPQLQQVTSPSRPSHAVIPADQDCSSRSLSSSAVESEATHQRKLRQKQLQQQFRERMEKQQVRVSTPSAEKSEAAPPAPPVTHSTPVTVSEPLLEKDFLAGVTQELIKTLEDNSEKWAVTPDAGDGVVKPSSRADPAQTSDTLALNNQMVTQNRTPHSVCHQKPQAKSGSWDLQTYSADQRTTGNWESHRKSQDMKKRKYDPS

T6 sequence (P49327 whole entry, the tested form may be a part): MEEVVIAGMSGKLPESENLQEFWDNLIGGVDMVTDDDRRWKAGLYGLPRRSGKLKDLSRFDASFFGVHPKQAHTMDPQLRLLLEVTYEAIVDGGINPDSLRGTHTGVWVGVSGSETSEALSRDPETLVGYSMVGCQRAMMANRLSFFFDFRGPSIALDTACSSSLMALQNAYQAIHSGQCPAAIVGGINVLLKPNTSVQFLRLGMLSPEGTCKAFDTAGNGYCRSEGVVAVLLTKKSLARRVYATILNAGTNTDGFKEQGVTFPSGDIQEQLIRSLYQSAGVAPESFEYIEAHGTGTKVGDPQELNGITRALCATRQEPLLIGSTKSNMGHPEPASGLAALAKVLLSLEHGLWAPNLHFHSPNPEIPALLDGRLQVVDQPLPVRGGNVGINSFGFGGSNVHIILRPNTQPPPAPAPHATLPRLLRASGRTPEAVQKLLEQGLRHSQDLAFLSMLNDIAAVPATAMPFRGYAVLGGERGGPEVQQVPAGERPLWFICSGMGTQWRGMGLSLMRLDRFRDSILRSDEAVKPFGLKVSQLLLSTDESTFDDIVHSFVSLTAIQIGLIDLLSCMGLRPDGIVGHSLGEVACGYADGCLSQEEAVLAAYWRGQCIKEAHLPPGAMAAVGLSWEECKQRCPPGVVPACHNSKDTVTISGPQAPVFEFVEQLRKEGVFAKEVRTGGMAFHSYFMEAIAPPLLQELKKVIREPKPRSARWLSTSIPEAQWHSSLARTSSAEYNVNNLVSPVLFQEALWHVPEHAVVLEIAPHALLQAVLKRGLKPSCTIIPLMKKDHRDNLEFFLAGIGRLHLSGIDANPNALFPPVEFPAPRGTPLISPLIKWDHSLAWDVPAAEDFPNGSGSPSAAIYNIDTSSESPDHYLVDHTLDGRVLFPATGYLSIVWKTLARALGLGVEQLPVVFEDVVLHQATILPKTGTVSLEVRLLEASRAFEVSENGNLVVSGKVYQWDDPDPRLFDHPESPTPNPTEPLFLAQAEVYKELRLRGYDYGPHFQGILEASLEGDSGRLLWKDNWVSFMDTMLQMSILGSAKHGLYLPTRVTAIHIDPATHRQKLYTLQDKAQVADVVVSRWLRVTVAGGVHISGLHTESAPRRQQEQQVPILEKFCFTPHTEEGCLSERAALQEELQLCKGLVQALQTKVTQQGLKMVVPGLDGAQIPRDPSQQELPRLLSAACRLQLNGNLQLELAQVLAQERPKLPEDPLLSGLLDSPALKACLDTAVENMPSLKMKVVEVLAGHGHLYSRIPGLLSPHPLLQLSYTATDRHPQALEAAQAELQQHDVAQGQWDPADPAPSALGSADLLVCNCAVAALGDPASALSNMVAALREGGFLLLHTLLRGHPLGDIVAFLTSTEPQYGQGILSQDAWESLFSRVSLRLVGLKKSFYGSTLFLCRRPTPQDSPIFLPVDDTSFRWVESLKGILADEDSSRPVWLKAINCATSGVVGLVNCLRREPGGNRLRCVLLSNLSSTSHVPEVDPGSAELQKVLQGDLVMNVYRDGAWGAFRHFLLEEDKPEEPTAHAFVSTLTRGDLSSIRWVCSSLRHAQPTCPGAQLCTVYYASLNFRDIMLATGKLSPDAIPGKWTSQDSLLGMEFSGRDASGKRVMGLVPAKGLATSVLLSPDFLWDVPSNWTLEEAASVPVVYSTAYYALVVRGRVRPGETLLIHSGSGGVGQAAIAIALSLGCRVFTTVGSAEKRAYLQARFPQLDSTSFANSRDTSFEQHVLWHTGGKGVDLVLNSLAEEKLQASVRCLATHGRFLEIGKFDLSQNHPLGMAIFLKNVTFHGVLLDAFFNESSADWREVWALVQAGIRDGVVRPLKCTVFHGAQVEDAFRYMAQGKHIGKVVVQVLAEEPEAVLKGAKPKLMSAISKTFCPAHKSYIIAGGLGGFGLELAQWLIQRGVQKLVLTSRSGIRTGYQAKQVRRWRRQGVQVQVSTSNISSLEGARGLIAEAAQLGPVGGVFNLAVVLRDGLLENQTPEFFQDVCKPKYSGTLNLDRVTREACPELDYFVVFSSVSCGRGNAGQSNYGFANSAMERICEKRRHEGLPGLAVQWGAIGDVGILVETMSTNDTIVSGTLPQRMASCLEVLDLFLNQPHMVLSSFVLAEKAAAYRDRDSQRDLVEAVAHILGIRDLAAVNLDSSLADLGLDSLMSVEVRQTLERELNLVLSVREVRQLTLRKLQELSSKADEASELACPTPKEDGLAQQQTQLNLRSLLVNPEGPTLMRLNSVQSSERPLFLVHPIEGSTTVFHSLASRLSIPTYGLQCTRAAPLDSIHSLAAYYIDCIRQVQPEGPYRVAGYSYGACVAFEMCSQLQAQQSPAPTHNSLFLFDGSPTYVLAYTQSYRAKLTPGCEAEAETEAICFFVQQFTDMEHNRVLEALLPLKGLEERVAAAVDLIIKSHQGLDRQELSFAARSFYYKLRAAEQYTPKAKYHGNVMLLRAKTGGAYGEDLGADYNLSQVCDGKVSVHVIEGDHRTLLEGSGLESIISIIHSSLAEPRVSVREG
Paired box protein Pax-8, sequence (Q06710 whole entry): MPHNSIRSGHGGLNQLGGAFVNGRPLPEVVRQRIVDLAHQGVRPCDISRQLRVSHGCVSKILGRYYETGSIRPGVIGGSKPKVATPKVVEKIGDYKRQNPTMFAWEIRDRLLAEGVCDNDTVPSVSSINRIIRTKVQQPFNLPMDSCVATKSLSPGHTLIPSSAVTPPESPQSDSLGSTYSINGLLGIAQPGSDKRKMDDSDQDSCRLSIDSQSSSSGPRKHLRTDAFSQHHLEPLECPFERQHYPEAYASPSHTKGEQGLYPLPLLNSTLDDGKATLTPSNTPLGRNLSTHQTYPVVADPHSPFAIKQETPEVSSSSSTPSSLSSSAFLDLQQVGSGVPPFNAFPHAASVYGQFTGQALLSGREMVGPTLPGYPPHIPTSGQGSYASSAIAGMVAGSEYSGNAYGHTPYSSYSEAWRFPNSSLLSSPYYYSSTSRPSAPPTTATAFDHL

O=C(Nc1nccs1)c1c(O)nc2c(c1O)CCCC2
EC50 [1]: 0.446 µM (active) | EC50 [2]: 0.504 µM (active) | EC50 (H4): < 0.1 µM (active) | EC50 [3]: 0.475 µM (active) | EC50 [4]: 0.999 µM (active)

C[C@H](NCCc1ccc(O)cc1)[C@H](O)c1ccc(O)cc1 [RITODRINE]
IC50 (Galanin receptor type 3): 0.932 µM (active) | EC50 (cells [5]): > 29.9 µM (inactive)

CCOC(=O)Cn1nnnc1C(C(C)C)N(Cc1cccs1)Cc1cc2cc(C)ccc2nc1O (stereo not drawn)
IC50 (Galanin receptor type 3): > 29.9 µM (inactive) | EC50 (cells [5]): > 29.9 µM (inactive)

c1ccc2c(c1)COc1c3cc4c(cc3nn1-2)OCO4
EC50 (cells [6]): > 67.6 µM (inactive) | EC50 [7]: > 67.6 µM (inactive)

COc1c(C(=O)Nc2nnc(C3CC3)s2)csc1Cl
EC50 (cells [6]): > 67.6 µM (inactive) | EC50 [7]: > 67.6 µM (inactive)

O=C1c2cccc(Sc3ccccc3)c2C(=O)c2c(Sc3ccccc3)cccc21
AC50 [8]: 5.27 µM (active) | IC50 [9]: 6.16 µM (not active)

FC(F)(F)c1cccc(/C=N/NC(=S)NC2CCCCC2)c1
IC50 (Galanin receptor type 3): 3.19 µM (active) | EC50 (cells [5]): > 29.9 µM (inactive)

Cc1cccc(C)c1Cn1c(C)c(C(=O)NCc2ccc([N+](=O)[O-])cc2)sc1=O
AC50 [10]: 20.5 µM (active) | IC50 (Fatty acid synthase [11]): 6.75 µM (active) | IC50 (Fatty acid synthase [12]): 4.48 µM (active)

Nc1nn(-c2cccc(F)n2)cc1-c1ccc(Cl)cc1
EC50 (cells [6]): > 67.6 µM (inactive) | EC50 [7]: > 67.6 µM (inactive) | EC50 [13]: > 260 µM (inconclusive)

O=C(Nc1ccccc1)N1CC=C(c2ccccc2)CC1
EC50 [1]: 0.237 µM (active) | EC50 [2]: 0.376 µM (active) | EC50 (H4): < 0.1 µM (active) | EC50 [3]: 0.272 µM (active)

CC1OC(OC2C=C3CCC4C(CCC5(C)C(c6ccc(=O)oc6)CCC45O)C3(C)CC2)C(O)C(OC2OC(CO)C(O)C(O)C2O)C1O (stereo not drawn)
IC50 (Galanin receptor type 3): > 29.9 µM (inactive) | AC50 (Paired box protein Pax-8): < 0.26 µM (active) | EC50 (cells [5]): > 29.9 µM (inactive)

c1ccc(-c2csc(Nc3ccc4c(c3)OCO4)n2)cc1
EC50 (cells [6]): > 67.6 µM (inactive) | EC50 [7]: > 67.6 µM (inactive)

CN1CCN(c2ccc(NC(=O)c3cc(S(N)(=O)=O)ccc3N3CCOCC3)cc2)CC1
AC50 [14]: 8.83 µM (active)
